Legend:
[1] = target: S1P3 (membranes from EDG3-Ga15-bla HEK293T cells) (Homo sapiens (Human), UniProt Q99500); assay: Receptor [35S] GTPγS Binding Assay, S1P3; format: biochemical; details: EDG3-Ga15-bla HEK293T cell membranes; rounded to two digits
Description: (§1) Receptor [35S] GTPγS Binding Assays
(§2) Compounds were loaded in a 384 Falcon v-bottom plate (0.5 μl/well in a 11 point, 3-fold dilution). Membranes prepared from S1P1/CHO cells or EDG3-Ga15-bla HEK293T cells were added to the compound plate (40 μl/well, final protein 3 μg/well) with multidrop. [^35S]GTP (1250 Ci/mmol, Perkin Elmer) was diluted in assay buffer: 20 mM HEPES, pH7.5, 10 mM MgCl2, 150 mM NaCl, 1 mM EGTA, 1 mM DTT, 10 μM GDP, 0.1% fatty acid free BSA, and 10 μg/ml Saponin to 0.4 nM. 40 μl of the [^35S] GTP solution was added to the compound plate with a final concentration of 0.2 nM. The reaction was kept at room temperature for 45 min. At the end of incubation, all the mixtures in the compound plate were transferred to Millipore 384-well FB filter plates via the Velocity11 Vprep liquid handler. The filter plate was washed with water 4 times by using the manifold Embla plate washer and dried at 60° C. for 45 min. MicroScint 20 scintillation fluid (30 μl) was added to each well for counting on the Packard TopCount. EC50 is defined as the agonist concentration that corresponds to 50% of the Ymax (maximal response) obtained for each individual compound tested. The results in Table B were rounded to two digits.

human S1P1 = human S1P1 (Homo sapiens (Human), UniProt P21453); assay: S1P1 Binding Assay (33P-S1P radioligand competition); details: membranes from CHO cells expressing human S1P1; 0.03 nM 33P-S1P; rounded to two digits
Sequence of human S1P1 (P21453 whole entry): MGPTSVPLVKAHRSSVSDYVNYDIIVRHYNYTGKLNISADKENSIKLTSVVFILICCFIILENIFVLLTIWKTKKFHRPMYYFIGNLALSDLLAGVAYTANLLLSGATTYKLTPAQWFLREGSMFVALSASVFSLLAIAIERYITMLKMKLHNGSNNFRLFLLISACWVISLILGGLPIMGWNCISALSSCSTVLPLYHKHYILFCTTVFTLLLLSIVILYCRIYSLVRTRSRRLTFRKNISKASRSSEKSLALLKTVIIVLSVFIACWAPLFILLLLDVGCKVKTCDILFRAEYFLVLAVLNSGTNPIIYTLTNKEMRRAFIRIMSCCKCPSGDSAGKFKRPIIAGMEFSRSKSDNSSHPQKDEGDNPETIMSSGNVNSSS
Description: Membranes were prepared from CHO cells expressing human S1P1. Cells pellets (1×10^8cells/pellet) were suspended in buffer containing 20 mM HEPES, pH 7.5, 50 mM NaCl, 2 mM EDTA and Protease Inhibitor cocktail (Roche), and disrupted on ice using the Polytron homogenizer. The homogenate was centrifuged at 20,000 rpm (48,000 g) and the supernatant was discarded. The membrane pellets were resuspended in buffer containing 50 mM HEPES, pH 7.5, 100 mM NaCl, 1 mM MgCl2, 2 mM EDTA and stored in aliquots at −80° C. after protein concentration determination.
Membranes (2 μg/well) and 0.03 nM final concentration of ^33P-S1P ligand (1 mCi/ml, American Radiolabeled Chemicals) diluted in assay buffer (50 mM HEPES, pH7.4, 5 mM MgCl2, 1 mM CaCl2, 0.5% fatty acid free BSA, 1 mM NaF) were added to the compound plates (384 Falcon v-bottom plate (0.5 μl/well in a 11 point, 3-fold dilution). Binding was performed for 45 minutes at room temperature, terminated by collecting the membranes onto 384-well Millipore FB filter plates, and radioactivity was measured by TopCount. The competition data of the test compounds over a range of concentrations was plotted as percentage inhibition of radioligand specific binding. The IC50 is defined as the concentration of competing ligand needed to reduce specific binding by 50%.

[2] = target: S1P1 (membranes from S1P1/CHO cells) (Homo sapiens (Human), UniProt P21453); assay: Receptor [35S] GTPγS Binding Assay, S1P1; format: biochemical; details: S1P1/CHO cell membranes; rounded to two digits
Sequence of S1P1 (membranes from S1P1/CHO cells) (P21453 whole entry): as above
Description: as §1, §2

[3] = tested on: circulating blood lymphocytes; assay: Blood Lymphocyte Reduction Assay (BLR) in Rodents; format: in vivo; details: Lewis rats, oral, versus vehicle (PEG300) group
Description: Blood Lymphocyte Reduction Assay (BLR) in Rodents
Lewis rats were dosed orally with test article (as a solution or suspension in the vehicle) or vehicle alone (polyethylene glycol 300, “PEG300”). Blood was drawn at 4 hr and 24 h by retro-orbital bleeding. Blood lymphocyte counts were determined on an ADVIA 120 Hematology Analyzer (Siemens Healthcare Diagnostics). The results were measured as a reduction in the percentage of circulating lymphocytes as compared to the vehicle treated group at the 4 hr and 24 hr measurement. The results represent the average results of all animals within each treatment group (n=3-4).

Sequence of S1P3 (membranes from EDG3-Ga15-bla HEK293T cells) (Q99500 whole entry): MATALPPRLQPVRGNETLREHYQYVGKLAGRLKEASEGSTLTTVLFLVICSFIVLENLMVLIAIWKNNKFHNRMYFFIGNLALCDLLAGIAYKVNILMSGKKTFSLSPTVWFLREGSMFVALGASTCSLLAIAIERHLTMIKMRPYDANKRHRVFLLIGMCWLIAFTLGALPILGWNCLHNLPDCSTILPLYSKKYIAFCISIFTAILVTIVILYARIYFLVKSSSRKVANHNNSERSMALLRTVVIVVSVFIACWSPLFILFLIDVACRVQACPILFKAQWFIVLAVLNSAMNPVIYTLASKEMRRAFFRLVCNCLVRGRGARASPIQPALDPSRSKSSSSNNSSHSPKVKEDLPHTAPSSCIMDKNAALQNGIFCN

Row | SMILES | EC50 [1] | IC50 (human S1P1) | EC50 [2] | % Reduction in Lymphocytes at 4 hr. ([3]; dose 1.0 mg/kg) | % Reduction in Lymphocytes at 4 hr. ([3]; dose 3.0 mg/kg)
1 | OCC1COCCN1Cc1ccc2c(c1)CCc1c-2noc1-c1noc(-c2ccccc2)c1C(F)(F)F (centres unmarked) [Example 74] | > 63000 nM | 600 nM | 410 nM |  | 
2 | CCCc1ccc(-c2onc3c2CCc2cc(OC[C@H](O)CO)ccc2-3)cc1 [Example 12, (R)-3-(3-(4-Propylphenyl)-4,5-dihydronaphtho[1,2-c]isoxazol-7-yloxy)propane-1,2-diol] | > 31000 nM | 390 nM | 6300 nM |  | 
3 | OCc1ccc2c(c1)CCc1c-2noc1-c1cccc(C(F)(F)F)c1 [Example 24, (3-(3-(Trifluoromethyl)phenyl)-4,5-dihydronaphtho[1,2-c]isoxazol-7-yl)methanol] | > 31000 nM | 3200 nM | 3200 nM |  | 
4 | CC(N)(CO)CCc1ccc2c(c1)CCc1c-2noc1-c1noc(-c2ccccc2)c1C(F)(F)F (single isomer, unassigned) [Example 93, 2-amino-2-methyl-4-(3-(5-phenyl-4-(trifluoromethyl)isoxazol-3-yl)-4,5-dihydronaphtho[1,2-c]isoxazol-7-yl)butan-1-ol] | > 63000 nM | 22 nM | 40 nM |  | 
5 | O=C(O)C1CN(Cc2ccc3c(c2)CCc2c-3n[nH]c2-c2onc(-c3ccccc3)c2C(F)(F)F)C1 [Example 22, 1-((3-(3-Phenyl-4-(trifluoromethyl)isoxazol-5-yl)-4,5-dihydro-2H-benzo[g]indazol-7-yl)methyl)azetidine-3-carboxylic acid] | > 63000 nM | 980 nM | 980 nM |  | 
6 | Oc1ccc2c(c1)CCc1c-2noc1-c1cc(-c2ccccc2Cl)n(-c2ccccc2)n1 [Example 33, 3-(5-(2-Chlorophenyl)-1-phenyl-1H-pyrazol-3-yl)-4,5-dihydronaphtho[1,2-c]isoxazol-7-ol] | > 31000 nM | 250 nM | 250 nM |  | 
7 | Oc1ccc2c(c1)CCc1c-2noc1-c1cc(-c2ccccc2)on1 [Example 32, 3-(5-Phenylisoxazol-3-yl)-4,5-dihydronaphtho[1,2-c]isoxazol-7-ol] | > 63000 nM | 15000 nM | 15000 nM |  | 
8 | CC(C)Oc1ccc(-c2onc3c2CCc2cc(CNCCC(=O)O)ccc2-3)cc1C#N [Example 16, 3-((3-(3-Cyano-4-isopropoxyphenyl)-4,5-dihydronaphtho[1,2-c]isoxazol-7-yl)methylamine)propanoic acid] | 11000 nM | 24 nM | 24 nM |  | 
9 | O=C(O)C1CN(Cc2ccc3c(c2)CCc2c-3noc2-c2onc(-c3ccccc3)c2C(F)(F)F)C1 [Example 7, 1-((3-(3-Phenyl-4-(trifluoromethyl)isoxazol-5-yl)-4,5-dihydronaphtho[1,2-c]isoxazol-7-yl)methyl)azetidine-3-carboxylic acid] | > 31000 nM | 57 nM | 57 nM |  | 
10 | CC(N)(CCc1ccc2c(c1)CCc1c-2noc1-c1noc(-c2ccccc2)c1C(F)(F)F)C(=O)O (single isomer, unassigned) [Example 94, 2-amino-2-methyl-4-(3-(5-phenyl-4-(trifluoromethyl)isoxazol-3-yl)-4,5-dihydronaphtho[1,2-c]isoxazol-7-yl)butanoic acid] | 16200 nM | 16 nM | 12 nM |  | 
11 | O=C(O)C1CN(Cc2cc3c(cc2F)-c2noc(-c4onc(-c5ccccc5)c4C(F)(F)F)c2CC3)C1 [Example 67] | 14700 nM | 5.6 nM | 0.76 nM |  | 
12 | O=C(O)[C@H]1CCCN(Cc2ccc3c(c2)CCc2c-3noc2-c2noc(-c3ccccc3)c2C(F)(F)F)C1 [Example 70, (3S)-1-((3-(5-Phenyl-4-(trifluoromethyl)isoxazol-3-yl)-4,5-dihydronaphtho[1,2-c]isoxazol-7-yl)methyl)piperidine-3-carboxylic acid] | 4660 nM | 22 nM | 49 nM |  | 
13 | CC(C)Cc1onc(-c2onc3c2CCc2cc(CN4CC(C(=O)O)C4)ccc2-3)c1C(F)(F)F [Example 5, 1-((3-(5-Isobutyl-4-(trifluoromethyl)isoxazol-3-yl)-4,5-dihydronaphtho[1,2-c]isoxazol-7-yl)methyl)azetidine-3-carboxylic acid] | 1500 nM | 0.57 nM | 0.74 nM | 83% | 

More lines, main results first:

Row | EC50 [1] | IC50 (human S1P1) | EC50 [2] | SMILES | % Reduction in Lymphocytes at 4 hr. ([3]; dose 1.0 mg/kg) | % Reduction in Lymphocytes at 4 hr. ([3]; dose 3.0 mg/kg)
14 | 1300 nM | 1.3 nM | 1.3 nM | CCCc1ccc(-c2noc3c2COc2cc(CN4CC(C(=O)O)C4)ccc2-3)cc1 [Example 3, 1-((3-(4-Propylphenyl)-4H-chromeno[3,4-d]isoxazol-7-yl)methyl)azetidine-3-carboxylic acid] | 85% | 
15 | > 31000 nM | 6.7 nM | 11 nM | CC(C)Oc1ccc(-c2onc3c2CCc2cc(CN4CC(C(=O)O)C4)ccc2-3)cc1C(F)(F)F [Example 14, 1-((3-(4-Isopropoxy-3-(trifluoromethyl)phenyl)-4,5-dihydronaphtho[1,2-c]isoxazol-7-yl)methyl)azetidine-3-carboxylic acid] |  | 
16 | 3500 nM | 0.98 nM | 0.73 nM | CC(C)Cc1ccc(-c2onc3c2CCc2cc(CN4CC(C(=O)O)C4)ccc2-3)cc1C(F)(F)F [Example 23, 1-((3-(4-Isobutyl-3-(trifluoromethyl)phenyl)-4,5-dihydronaphtho[1,2-c]isoxazol-7-yl)methyl)azetidine-3-carboxylic acid] |  | 76%
17 | > 31000 nM | 56 nM | 220 nM | CCCc1ccc(-c2noc3c2CCc2cc(CN4CC(C(=O)O)C4)ccc2-3)cc1 [Example 20, 1-((3-(4-Propylphenyl)-4,5-dihydronaphtho[2,1-d]isoxazol-7-yl)methyl)azetidine-3-carboxylic acid] |  | 
18 | > 31000 nM | 1.6 nM | 0.32 nM | O=C(O)C1CN(Cc2ccc3c(c2)OCc2c-3noc2-c2onc(-c3ccccc3)c2C(F)(F)F)C1 [Example 61, 1-((3-(3-phenyl-4-(trifluoromethyl)isoxazol-5-yl)-4H-chromeno[4,3-c]isoxazol-7-yl)methyl)-azetidine-3-carboxylic acid] |  | 
19 | 8200 nM | 1.2 nM | 1.2 nM | CCCc1ccc(-c2onc3c2COc2cc(CN4CC(C(=O)O)C4)ccc2-3)cc1 [Example 2, 1-((3-(4-Propylphenyl)-4H-chromeno[4,3-c]isoxazol-7-yl)methyl)azetidine-3-carboxylic acid] | 65% | 
20 | 4400 nM | 0.66 nM | 0.59 nM | O=C(O)C1CN(Cc2ccc3c(c2)CCc2c-3noc2-c2noc(-c3ccccc3)c2C(F)(F)F)C1 [Example 6, 1-((3-(5-Phenyl-4-(trifluoromethyl)isoxazol-3-yl)-4,5-dihydronaphtho[1,2-c]isoxazol-7-yl)methyl)azetidine-3-carboxylic acid] | 86% | 
21 | > 63000 nM | 1600 nM | 1600 nM | CC(C)Cc1ccc(-c2onc3c2CCc2cc(O)ccc2-3)cc1 [Example 41, 3-(4-Isobutylphenyl)-4,5-dihydronaphtho[1,2-c]isoxazol-7-ol] |  | 
22 | 8500 nM | 4.1 nM | 1.7 nM | N#CC1(NC(=O)[C@H](O)c2ccc3c(c2)CCc2c-3noc2-c2noc(-c3ccccc3)c2C(F)(F)F)CC1 (stereo in doubt) [Example 132, N-(1-cyanocyclopropyl)-2-hydroxy-2-(3-(5-phenyl-4-(trifluoromethyl)isoxazol-3-yl)-4,5-dihydronaphtho[1,2-c]isoxazol-7-yl)acetamide] |  | 

— patent US9216972B2, “Tricyclic heterocyclic compounds” (Bristol-Myers Squibb Company, priority 2009, dated 2015)
